Measurements: patent US8741884B2, “Compounds for the treatment of hepatitis C” (priority 2010, dated 2014)
Like-named read-outs stand apart in the source and are kept apart here.

Tested on: HCV pseudoparticles (genotype 1a HCV E1 and E2 envelope, H77C isolate)
Assay: microbe, parasite or virus in culture
Assay type: cell-based
[1] = Hepatitis C virus, Huh-7, 48 h, class symbol, HCV pseudoparticles genotype 1a (H77C), Huh7 cells, luciferase 2 days after infection, average of duplicates
[2] = Hepatitis C virus, Huh-7, 48 h, numeric value, HCV pseudoparticles genotype 1a (H77C), Huh7 cells, luciferase 2 days after infection, average of duplicates

## CC(C)(C)OC(=O)N1CCCC1CC(NC(=O)c1ccc2cc1OCCCCCCOc1ccc(cc1)CNc1nc(nc(OCC(F)(F)F)n1)N2)C(=O)O (centres unmarked) [Example 1407]
[1]
  EC50: 0.1 to 100 nM

## N=C(N)NCCC[C@H](NC(=O)c1ccc2cc1OCCCCCCOc1ccc(cc1)CNc1nc(nc(OCC(F)(F)F)n1)N2)C(N)=O [Example 1313]
[1]
  EC50: 0.1 to 100 nM

## CCNC(=O)N1CCCOc2ccc(cc2)CNc2nc(nc(OCC(F)(F)F)n2)Nc2ccc(C(=O)NCC3(CN4CCCC4)CC3)c(c2)OCCC1 [Example 3008]
[1]
  EC50: 0.1 to 100 nM
[2]
  EC50: 5.36 nM

## O=C(NC(C(=O)O)C1CCCNC1)c1ccc2cc1OCCOCCOCCOc1ccc(cc1)CNc1nc(nc(OCC(F)(F)F)n1)N2 (centres unmarked) [Example 1606]
[1]
  EC50: 0.1 to 100 nM

## COC(=O)[C@H](CNC(=O)OC(C)(C)C)NC(=O)c1ccc2cc1OCCOCCOCCOc1ccc(cc1)CNc1nc(nc(OCC(F)(F)F)n1)N2 [Example 1604]
[1]
  EC50: 0.1 to 100 nM

## O=C(NCC1(C(=O)O)CCNCC1)c1ccc2cc1OCCCCCCOc1ccc(cc1)CNc1nc(nc(OCC(F)(F)F)n1)N2 [Example 1504]
[1]
  EC50: 0.1 to 100 nM

## CN(C)CC(C)(C)CNC(=O)c1ccc2cc1OCCCCCCOc1cccc(c1)CNc1nc(nc(OCC(F)(F)F)n1)N2 [Example 1804]
[1]
  EC50: 100 to 1000 nM
[2]
  EC50: 239 nM

## CN(C)CC(C)(C)CNC(=O)c1ccc2cc1OCCCCOc1cccc(c1)CNc1nc(nc(OCC(F)(F)F)n1)N2 [Example 1802]
[1]
  EC50: 0.1 to 100 nM

## N=C(N)NCCC[C@H](NC(=O)c1ccc2cc1OCCOCCOCCOc1ccc(cc1)CNc1nc(nc(OCC(F)(F)F)n1)N2)C(=O)O [Example 1602]
[1]
  EC50: 0.1 to 100 nM

## NC[C@H](NC(=O)c1ccc2cc1OCCCCCCOc1ccc(cc1)CNc1nc(nc(OCC(F)(F)F)n1)N2)C(=O)O [Example 1559]
read-out: EC50
  EC50: 0.1 to 100 nM

## COC(=O)CCCNC(=O)c1ccc2cc1OCCCCCCCCOc1ccc(cc1)CNc1nc(nc(OCC(F)(F)F)n1)N2 [Example 1101]
[1]
  EC50: 0.1 to 100 nM

## C=C1COc2ccc(cc2)CNc2nc(nc(OCC(F)(F)F)n2)Nc2ccc(C(=O)O)c(c2)OC1 [Example 1005]
[1]
  EC50: 1000 to 50000 nM

## O=C(NCC1(CN2CCCC2)CC1)c1ccc2cc1OCCCCNCCCOc1ccc(cc1)CNc1nc(nc(OCC(F)(F)F)n1)N2 [Example 3017]
[1]
  EC50: 0.1 to 100 nM

## COC(=O)C(NC(=O)c1ccc2cc1OCCCCCCCCOc1ccc(cc1)CNc1nc(nc(OCC(F)(F)F)n1)N2)C1CCCNC1 (centres unmarked) [Example 1152]
[1]
  EC50: 0.1 to 100 nM

## CC(C)(C)OC(=O)NCC[C@H](NC(=O)c1ccc2cc1OCCCCCCOc1ccc(cc1)CNc1nc(nc(OCC(F)(F)F)n1)N2)C(=O)O [Example 1561]
[1]
  EC50: 0.1 to 100 nM

## CCOC(=O)N1CCCCOc2cc(ccc2C(=O)NCC2(CN3CCCC3)CC2)Nc2nc(nc(OCC(F)(F)F)n2)NCc2ccc(cc2)OCCC1 [Example 3020]
[1]
  EC50: 0.1 to 100 nM

## CC(C)(C)OC(=O)NC(CNC(=O)c1ccc2cc1OCCCCCCOc1ccc(cc1)CNc1nc(nc(OCC(F)(F)F)n1)N2)C(=O)O (centres unmarked) [Example 1409]
[1]
  EC50: 0.1 to 100 nM

## CC(C)(C)OC(=O)N1CCCOc2ccc(cc2)CNc2nc(nc(OCC(F)(F)F)n2)Nc2ccc(C(=O)NCC3(CN4CCCC4)CC3)c(c2)OCCC1 [Example 3003]
[1]
  EC50: 0.1 to 100 nM

## O=C(NCC1(CN2CCCC2)CC1)c1ccc2cc1OCCCNCCCCCCCCNc1nc(nc(OCC(F)(F)F)n1)N2 [Example 5002]
[1]
  EC50: 0.1 to 100 nM

## O=C(O)c1ccc2cc1OCCCCCCOc1ccc(cc1)CNc1nc(nc(OCC(F)(F)F)n1)N2 [Example 1302]
[1]
  EC50: 1000 to 50000 nM

## CC(C)(C)OC(=O)N1CCC(C(NC(=O)c2ccc3cc2OCCCCCCOc2ccc(cc2)CNc2nc(nc(OCC(F)(F)F)n2)N3)C(=O)O)CC1 (centres unmarked) [Example 1406]
[1]
  EC50: 0.1 to 100 nM

## O=C(NC(C(=O)O)C1CCNC1)c1ccc2cc1OCCCCCCOc1ccc(cc1)CNc1nc(nc(OCC(F)(F)F)n1)N2 (centres unmarked) [Example 1553]
read-out: EC50
  EC50: 0.1 to 100 nM

## N=C(N)NCCC[C@H](NC(=O)c1ccc2cc1OCCCCCCOc1ccc(cc1)CNc1nc(nc(OCC(F)(F)F)n1)N2)C(=O)O [Example 1402]
[1]
  EC50: 0.1 to 100 nM

## CC(C)(C)OC(=O)N1CCC(CNC(=O)c2ccc3cc2OCCCCCCOc2ccc(cc2)CNc2nc(nc(OCC(F)(F)F)n2)N3)C1 (centres unmarked) [Example 1305]
[1]
  EC50: 0.1 to 100 nM

## CC(C)CN1CCCOc2ccc(cc2)CNc2nc(nc(OCC(F)(F)F)n2)Nc2ccc(C(=O)NCC3(CN4CCCC4)CC3)c(c2)OCCC1 [Example 3013]
[1]
  EC50: 0.1 to 100 nM

## CC[C@@H](C)[C@H](NC(=O)c1ccc2cc1OCCCCCCOc1ccc(cc1)CNc1nc(nc(OCC(F)(F)F)n1)N2)C(=O)O [Example 1404]
[1]
  EC50: 0.1 to 100 nM

## O=C(NCC1(CN2CCCC2)CC1)c1ccc2cc1OCCCNCCCOc1cccc(c1)CNc1nc(nc(OCC(F)(F)F)n1)N2 [Example 3025]
[1]
  EC50: 0.1 to 100 nM

## CC(=O)N1CCCCOc2cc(ccc2C(=O)NCC2(CN3CCCC3)CC2)Nc2nc(nc(OCC(F)(F)F)n2)NCc2ccc(cc2)OCCC1 [Example 3022]
[1]
  EC50: 0.1 to 100 nM

## CC(C)OC(=O)N1CCCOc2ccc(cc2)CNc2nc(nc(OCC(F)(F)F)n2)Nc2ccc(C(=O)NCC3(CN4CCCC4)CC3)c(c2)OCCC1 [Example 3006]
[1]
  EC50: 0.1 to 100 nM

## COC(=O)CCNC(=O)c1ccc2cc1OCCCCCCCCOc1ccc(cc1)CNc1nc(nc(OCC(F)(F)F)n1)N2 [Example 1017]
[1]
  EC50: 100 to 1000 nM

## CC(C)(C)OC(=O)N1CCCC(NC(=O)c2ccc3cc2OCCCCCCCCOc2ccc(cc2)CNc2nc(nc(OCC(F)(F)F)n2)N3)C1 (centres unmarked) [Example 1012]
[1]
  EC50: 0.1 to 100 nM

## CC(C)(C)NC(=O)N1CCCCOc2cc(ccc2C(=O)NCC2(CN3CCCC3)CC2)Nc2nc(nc(OCC(F)(F)F)n2)NCc2ccc(cc2)OCCC1 [Example 3018]
[1]
  EC50: 0.1 to 100 nM

## CN(C)CC(C)(C)CNC(=O)c1ccc2cc1OCCCCCCCOc1ccc(cc1)CNc1nc(nc(OCC(F)(F)F)n1)N2 [Example 1201]
[1]
  EC50: 0.1 to 100 nM

## O=C(CNC(=O)c1ccc2cc1OCCCCCCCCOc1ccc(cc1)CNc1nc(nc(OCC(F)(F)F)n1)N2)NS(=O)(=O)C1CC1 [Example 1133]
[1]
  EC50: 100 to 1000 nM

## CC(C)(C)OC(=O)N1CCCC1CNC(=O)c1ccc2cc1OCCCCCCOc1ccc(cc1)CNc1nc(nc(OCC(F)(F)F)n1)N2 (centres unmarked) [Example 1306]
[1]
  EC50: 0.1 to 100 nM

## CC(C)(C)OC(=O)NC[C@@H](NC(=O)c1ccc2cc1OCCCCCCOc1ccc(cc1)CNc1nc(nc(OCC(F)(F)F)n1)N2)C(=O)O [Example 1556]
[1]
  EC50: 100 to 1000 nM
[2]
  EC50: 101 nM

## CC(C)(C)OC(=O)N1CCC(NC(=O)c2ccc3cc2OCCCCCCOc2ccc(cc2)CNc2nc(nc(OCC(F)(F)F)n2)N3)(C(=O)O)CC1 [Example 1410]
[1]
  EC50: 100 to 1000 nM

## CC(C)(C)OC(=O)N1CCCC(C(NC(=O)c2ccc3cc2OCCOCCOCCOc2ccc(cc2)CNc2nc(nc(OCC(F)(F)F)n2)N3)C(=O)O)C1 (centres unmarked) [Example 1605]
[1]
  EC50: 0.1 to 100 nM
[2]
  EC50: 23 nM

## CNC(=O)NC[C@H](NC(=O)c1ccc2cc1OCCCCCCOc1ccc(cc1)CNc1nc(nc(OCC(F)(F)F)n1)N2)C(=O)O [Example 1707]
[1]
  EC50: 0.1 to 100 nM

## CCCCN1CCCOc2ccc(cc2)CNc2nc(nc(OCC(F)(F)F)n2)Nc2ccc(C(=O)NCC3(CN4CCCC4)CC3)c(c2)OCCC1 [Example 3014]
[1]
  EC50: 0.1 to 100 nM

## CC(C)(C)OC(=O)N1CCCCOc2cc(ccc2C(=O)NCC2(CN3CCCC3)CC2)Nc2nc(nc(OCC(F)(F)F)n2)NCc2ccc(cc2)OCCC1 [Example 3016]
[1]
  EC50: 0.1 to 100 nM

## CC(C)(C)OC(=O)N1CCC(CNC(=O)c2ccc3cc2OCCCCCCCCOc2ccc(cc2)CNc2nc(nc(OCC(F)(F)F)n2)N3)C1 (centres unmarked) [Example 1105]
[1]
  EC50: 0.1 to 100 nM
[2]
  EC50: 49.1 nM

## CNC(=O)NC[C@H](NC(=O)c1ccc2cc1OCCCCCCOc1ccc(cc1)CNc1nc(nc(OCC(F)(F)F)n1)N2)C(=O)OC [Example 1706]
[1]
  EC50: 0.1 to 100 nM

## COC(=O)c1ccc2cc1OCCCC=CCCCOc1ccc(cc1)CNc1nc(nc(OCC(F)(F)F)n1)N2 [Example 1019]
read-out: EC50
  EC50: 100 to 1000 nM

## CC(C)(C)OC(=O)N1CCCOc2ccc(cc2)CNc2nc(nc(OCC(F)(F)F)n2)Nc2ccc(C(=O)O)c(c2)OCCC1 [Example 3002]
[1]
  EC50: 0.1 to 100 nM

## CC(C)(C)OC(=O)N1CCCC(C(NC(=O)c2ccc3cc2OCCCCCCOc2ccc(cc2)CNc2nc(nc(OCC(F)(F)F)n2)N3)C(=O)O)C1 (centres unmarked) [Example 1551]
[1]
  EC50: 0.1 to 100 nM

## FC(F)(F)COc1nc2nc(n1)Nc1cccc(c1)OCC=CCOc1ccc(cc1)CN2 [Example 2001]
[1]
  EC50: 0.1 to 100 nM

## CC(C)(C)OC(=O)N1C[C@H](C(=O)O)[C@H](NC(=O)c2ccc3cc2OCCCCCCOc2ccc(cc2)CNc2nc(nc(OCC(F)(F)F)n2)N3)C1 [Example 1558]
[1]
  EC50: 0.1 to 100 nM

## NC[C@@H](NC(=O)c1ccc2cc1OCCCCCCOc1ccc(cc1)CNc1nc(nc(OCC(F)(F)F)n1)N2)C(=O)O [Example 1555]
[1]
  EC50: 100 to 1000 nM

## CC(C)(C)OC(=O)NC[C@H](NC(=O)c1ccc2cc1OCCOCCOCCOc1ccc(cc1)CNc1nc(nc(OCC(F)(F)F)n1)N2)C(=O)O [Example 1608]
[1]
  EC50: 0.1 to 100 nM
[2]
  EC50: 56.2 nM

## O=C(O)c1ccc2cc1OCCCC=CCCCOc1ccc(cc1)CNc1nc(nc(OCC(F)(F)F)n1)N2 [Example 1020]
read-out: EC50
  EC50: 1000 to 50000 nM

## O=C(O)CNC(=O)c1ccc2cc1OCCCCCCCCOc1ccc(cc1)CNc1nc(nc(OCC(F)(F)F)n1)N2 [Example 1131]
[1]
  EC50: 100 to 1000 nM

## CN(C)CC(C)(C)CNC(=O)c1ccc2cc1OCCCCCCCCOc1ccc(cc1)CNc1nc(nc(OCC(F)(F)F)n1)N2 [Example 1010]
[1]
  EC50: 0.1 to 100 nM
[2]
  EC50: 5.14 nM

## C=C1CNCCNc2nc(nc(OCC(F)(F)F)n2)Nc2cccc(c2)CNC1 [Example 1016]
read-out: EC50
  EC50: 1000 to 50000 nM

## O=C(NC1CCNC1=O)c1ccc2cc1OCCCCCCOc1ccc(cc1)CNc1nc(nc(OCC(F)(F)F)n1)N2 (centres unmarked) [Example 1324]
[1]
  EC50: 0.1 to 100 nM

## CC(C)(C)OC(=O)N[C@@H](CCNC(=O)c1ccc2cc1OCCCCCCOc1ccc(cc1)CNc1nc(nc(OCC(F)(F)F)n1)N2)C(=O)OC(C)(C)C [Example 1325]
[1]
  EC50: 0.1 to 100 nM

## CCOC(=O)[C@@H]1CN(C(=O)OC(C)(C)C)C[C@H]1NC(=O)c1ccc2cc1OCCCCCCOc1ccc(cc1)CNc1nc(nc(OCC(F)(F)F)n1)N2 [Example 1308]
[1]
  EC50: 0.1 to 100 nM

## CC(C)(C)OC(=O)N1CCC(CNC(=O)c2ccc3cc2OCCCCCCOc2ccc(cc2)CNc2nc(nc(OCC(F)(F)F)n2)N3)(C(=O)O)CC1 [Example 1557]
[1]
  EC50: 100 to 1000 nM
